The source of these data is patent publication US8153791B2, “Substituted pyrimidinyl oxime kinase inhibitors” (Janssen Pharmaceutica N.V., priority 2005, dated 2012).

Experiment [1] has as its target T1, EGFR (Homo sapiens, UniProt P00533).
T1 construct: The intracellular portion of EGFR started at nucleotide 2189 (corresponding to amino acid 667) and ended at the termination codon; made in house; host or cells: Sf9 insect cells (baculovirus)
Nature of the experiment: EGFR Kinase Assay.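 Further: recombinant GST-tagged EGFR expressed in Sf9 cells, phosphorylating biotinylated polyGluTyr with γ-33P ATP on Streptavidin Flashplates, 1 h at 30 °C, scintillation counting, inhibition relative to plate maximum and minimum signals.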 Type of experiment: biochemical.

The target of experiment [2] is T2, HER-2 (Homo sapiens, UniProt P04626).
T2 construct: purchased Proqinase (Freiburg, Germany)
Description: HER-2 Kinase Assay.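 Further: HER2 kinase reaction read by scintillation counting, inhibition scaled between maximum and minimum signals set on each plate, IC50 from inhibition against log concentration.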 Type of experiment: biochemical. The note with it: read-out: HER2 IC50.

Some results are limits rather than exact numbers.

T1 sequence (P00533 669-1210 limits assumed): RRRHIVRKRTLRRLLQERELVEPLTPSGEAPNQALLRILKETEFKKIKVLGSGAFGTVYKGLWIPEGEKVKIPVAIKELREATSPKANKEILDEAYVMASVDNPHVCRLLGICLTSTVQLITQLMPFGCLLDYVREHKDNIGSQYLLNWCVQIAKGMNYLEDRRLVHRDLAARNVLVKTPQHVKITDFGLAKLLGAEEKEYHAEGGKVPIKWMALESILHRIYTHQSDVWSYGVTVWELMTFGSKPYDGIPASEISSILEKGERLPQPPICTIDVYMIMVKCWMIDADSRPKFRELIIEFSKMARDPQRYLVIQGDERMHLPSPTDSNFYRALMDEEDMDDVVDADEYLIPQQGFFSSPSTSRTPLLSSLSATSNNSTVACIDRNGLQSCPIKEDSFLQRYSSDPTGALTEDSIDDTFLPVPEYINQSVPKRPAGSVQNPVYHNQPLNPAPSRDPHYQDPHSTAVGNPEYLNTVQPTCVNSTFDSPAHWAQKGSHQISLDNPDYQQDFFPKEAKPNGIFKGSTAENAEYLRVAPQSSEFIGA
T2 sequence (P04626 679-1255): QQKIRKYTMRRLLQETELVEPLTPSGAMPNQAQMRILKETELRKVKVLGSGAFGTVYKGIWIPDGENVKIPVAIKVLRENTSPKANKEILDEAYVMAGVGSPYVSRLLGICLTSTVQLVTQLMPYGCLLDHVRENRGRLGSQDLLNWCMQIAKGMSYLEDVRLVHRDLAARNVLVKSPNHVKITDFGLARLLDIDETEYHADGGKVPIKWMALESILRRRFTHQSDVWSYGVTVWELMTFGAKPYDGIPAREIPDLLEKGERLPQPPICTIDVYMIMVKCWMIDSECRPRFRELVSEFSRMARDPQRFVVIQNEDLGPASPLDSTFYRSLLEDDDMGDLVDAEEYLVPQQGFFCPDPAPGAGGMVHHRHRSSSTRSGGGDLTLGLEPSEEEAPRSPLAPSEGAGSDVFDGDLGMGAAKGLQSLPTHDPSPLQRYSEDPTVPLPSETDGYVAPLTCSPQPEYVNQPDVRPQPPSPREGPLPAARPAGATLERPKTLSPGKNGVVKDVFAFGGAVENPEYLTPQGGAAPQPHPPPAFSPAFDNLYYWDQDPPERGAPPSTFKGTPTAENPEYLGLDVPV

The IC50 is the midpoint of a concentration-inhibition curve. `CO/N=C/c1c(N)ncnc1Nc1ccc2nn(Cc3cccc(F)c3)cc2c1` [Cpd 5]: the IC50 worked out at 500 nM in experiment [1] and 3700 nM in experiment [2]. Turning to `Nc1ncnc(Nc2ccc3c(cnn3Cc3cccc(F)c3)c2)c1/C=N/OCC(=O)N1CCOCC1` [Cpd 6, (5E)-4-amino-6-[1-(3-fluoro-benzyl)-1H-indazol-5-ylamino]-pyrimidine-5-carbaldehyde O-(2-morpholin-4-yl-2-oxo-ethyl)-oxime], the IC50 in experiment [2] stood at 100 nM. With `CO/N=C/c1c(N)ncnc1Nc1ccc(Oc2ccccc2)c(OC)c1` [Cpd 7, (5E)-4-amino-6-(3-methoxy-4-phenoxy-phenylamino)-pyrimidine-5-carbaldehyde O-methyl-oxime], the IC50 was found to be 50 nM in experiment [1] and 100 nM in experiment [2].

With `COc1cc(Nc2ncnc(N)c2/C=N/OCC(=O)N2CCOCC2)ccc1Oc1ccccc1` [Cpd 8, (5E)-4-amino-6-(3-methoxy-4-phenoxy-phenylamino)-pyrimidine-5-carbaldehyde O-(2-morpholin-4-yl-2-oxo-ethyl)-oxime], in experiment [2], the IC50 was 700 nM. In the case of `C=CCO/N=C/c1c(N)ncnc1Nc1ccc2c(cnn2Cc2cccc(F)c2)c1` [Cpd 11, (5E)-4-amino-6-[1-(3-fluoro-benzyl)-1H-indazol-5-ylamino]-pyrimidine-5-carbaldehyde O-allyl-oxime], the concentration for half-maximal inhibition (IC50) turned out to be 8 nM in experiment [1] and 10 nM in experiment [2]. The like results for `CC(C)(C)O/N=C/c1c(N)ncnc1Nc1ccc2c(cnn2Cc2cccc(F)c2)c1` [Cpd 12, (5E)-4-amino-6-[1-(3-fluoro-benzyl)-1H-indazol-5-ylamino]-pyrimidine-5-carbaldehyde O-tert-butyl-oxime] were, in that order, 40 nM and 50 nM.

As to `CO/N=C/c1c(N)ncnc1Nc1ccc(Oc2cccnc2)c(C)c1` [Cpd 13, (5E)-4-amino-6-[3-methyl-4-(pyridin-3-yloxy)-phenylamino]-pyrimidine-5-carbaldehyde O-methyl-oxime], the IC50 amounted to 200 nM in experiment [1] and 100 nM in experiment [2].

On to `CCO/N=C/c1c(N)ncnc1N[C@H](C)c1ccccc1` [Cpd 14], for which the figures for the IC50 in experiment [1] and in experiment [2] were 100 nM and 3100 nM, respectively. In the case of `CCO/N=C/c1c(N)ncnc1N[C@@H](C)c1ccccc1` [Cpd 16, (5E)-4-amino-6-[(1S)-1-phenyl-ethylamino]-pyrimidine-5-carbaldehyde O-ethyl-oxime], the IC50 in experiment [1] and in experiment [2] was 10 nM each time. As to `CCO/N=C/c1c(N)ncnc1Nc1ccc2[nH]ccc2c1` [Cpd 17, (5E)-4-amino-6-(1H-indol-5-ylamino)-pyrimidine-5-carbaldehyde O-ethyl-oxime], the IC50 in experiment [1] stood at 20 nM; in experiment [2], 600 nM.

Take `CCO/N=C/c1c(N)ncnc1Nc1ccc(OCc2cccc(F)c2)c(Cl)c1` [Cpd 18, (5E)-4-amino-6-[3-chloro-4-(3-fluoro-benzyloxy)-phenylamino)-pyrimidine-5-carbaldehyde O-ethyl-oxime]: the IC50 in experiment [1] is 30 nM; in experiment [2] it was 40 nM. The like results for `CO/N=C/c1c(N)ncnc1Nc1ccc2c(c1)CCC2` [Cpd 20] were, in that order, 1200 nM and 14100 nM. As to `CO/N=C/c1c(N)ncnc1Nc1ccc(OC(F)F)cc1` [Cpd 21], the figures for the IC50 in experiment [1] and in experiment [2] were 1500 nM and 5300 nM, respectively. For `CO/N=C/c1c(N)ncnc1Nc1ccc2c(c1)OCO2` [Cpd 23] the same measures were 1900 nM and 28500 nM.

Regarding `CO/N=C/c1c(N)ncnc1Nc1ccc(Oc2ccccc2)cc1` [Cpd 24, (5E)-4-amino-6-(4-phenoxy-phenylamino)-pyrimidine-5-carbaldehyde O-methyl-oxime], the IC50 is 90 nM in experiment [1] and 200 nM in experiment [2]. The like results for `CO/N=C/c1c(N)ncnc1Nc1ccc(OCc2ccccc2)cc1` [Cpd 25, (5E)-4-amino-6-(4-benzyloxy-phenylamino)-pyrimidine-5-carbaldehyde O-methyl-oxime] were, in that order, 30 nM and 300 nM. The like results for `CO/N=C/c1c(N)ncnc1Nc1cccc(OCc2ccccc2)c1` [Cpd 28] were, in that order, 900 nM and 5500 nM. Take `CO/N=C/c1c(N)ncnc1Nc1ccc(Oc2ccc(C)nc2)c(C)c1` [Cpd 29, (5E)-4-amino-6-[3-methyl-4-(6-methyl-pyridin-3-yloxy)-phenylamino]-pyrimidine-5-carbaldehyde O-methyl-oxime]: the IC50 in experiment [1] and in experiment [2] was 200 nM throughout. Consider `Nc1ncnc(Nc2ccc3c(cnn3Cc3cccc(F)c3)c2)c1/C=N/OCCOc1ccccc1` [Cpd 31, (5E)-4-amino-6-[1-(3-fluoro-benzyl)-1H-indazol-5-ylamino]-pyrimidine-5-carbaldehyde O-(2-phenoxy-ethyl)-oxime], for which the half-inhibitory concentration (IC50) in experiment [1] worked out at 20 nM; in experiment [2] it was 300 nM. For `CO/N=C/c1c(N)ncnc1Nc1ccc(OCc2ccccn2)c(Cl)c1` [Cpd 32, (5E)-4-amino-6-[3-chloro-4-(pyridin-2-ylmethoxy)-phenylamino]-pyrimidine-5-carbaldehyde O-methyl-oxime] the same measures were 10 nM and 90 nM. Turning to `CCO/N=C/c1c(N)ncnc1Nc1ccc2c(ccn2Cc2cccc(F)c2)c1` [Cpd 33, (5E)-4-amino-6-[1-(3-fluoro-benzyl)-1H-indol-5-ylamino]-pyrimidine-5-carbaldehyde O-ethyl-oxime], the IC50 in experiment [1] worked out at 20 nM; in experiment [2], 100 nM. In the case of `CCO/N=C/c1c(N)ncnc1Nc1ccc(OCc2ccccc2)c(Cl)c1` [Cpd 37, (5E)-4-amino-6-(4-benzyloxy-3-chloro-phenylamino)-pyrimidine-5-carbaldehyde O-ethyl-oxime], the IC50 in experiment [1] was determined as 20 nM; in experiment [2], 90 nM. As to `CO/N=C/c1c(N)ncnc1Nc1ccc(Oc2cccnc2)c(Cl)c1` [Cpd 38, (5E)-4-amino-6-[3-chloro-4-(pyridin-3-yloxy)-phenylamino]-pyrimidine-5-carbaldehyde O-methyl-oxime], the figures for the IC50 in experiment [1] and in experiment [2] were 100 nM and 50 nM, respectively. As to `CNc1ncnc(Nc2ccc(OCc3cccc(F)c3)c(Cl)c2)c1C=NOC` [Cpd 39, 4-[3-Chloro-4-(3-fluoro-benzyloxy)-phenylamino]-6-methylamino-pyrimidine-5-carbaldehyde O-methyl-oxime], in experiment [2], the 50% inhibitory concentration (IC50) came to 14800 nM.

Consider `CCNc1ncnc(Nc2ccc3c(cnn3Cc3cccc(F)c3)c2)c1/C=N/OC` [Cpd 40, (5E)-4-ethylamino-6-[1-(3-fluoro-benzyl)-1H-indazol-5-ylamino]-pyrimidine-5-carbaldehyde O-methyl-oxime], for which the 50% inhibitory concentration (IC50) in experiment [2] is 10600 nM. Turning to `CCNc1ncnc(Nc2ccc3c(cnn3Cc3cccc(F)c3)c2)c1/C=N/OCC` [Cpd 41, (5E)-4-ethylamino-6-[1-(3-fluoro-benzyl)-1H-indazol-5-ylamino]-pyrimidine-5-carbaldehyde O-ethyl-oxime], the IC50 was 400 nM in experiment [1] and 3600 nM in experiment [2]. Take `CCNc1ncnc(Nc2ccc(OCc3cccc(F)c3)c(Cl)c2)c1/C=N/OC` [Cpd 42, (5E)-4-[3-chloro-4-(3-fluoro-benzyloxy)-phenylamino]-6-ethylamino-pyrimidine-5-carbaldehyde O-methyl-oxime]: in experiment [1], the midpoint of inhibition, the IC50, lay at 7800 nM. On to `CCNc1ncnc(Nc2ccc(OCc3cccc(F)c3)c(Cl)c2)c1/C=N/OCC` [Cpd 43, (5E)-4-[3-chloro-4-(3-fluoro-benzyloxy)-phenylamino]-6-ethylamino-pyrimidine-5-carbaldehyde O-ethyl-oxime], for which the results for the IC50 in experiment [1] and in experiment [2] were 1400 nM and 10400 nM, respectively. For `COc1ccc(CO/N=C/c2c(N)ncnc2Nc2ccc3c(cnn3Cc3cccc(F)c3)c2)cc1` [Cpd 44, (5E)-4-amino-6-[1-(3-fluoro-benzyl)-1H-indazol-5-ylamino]-pyrimidine-5-carbaldehyde O-(4-methoxy-benzyl)-oxime] the same measures were 70 nM and 1600 nM. For the molecule `CCO/N=C/c1c(N)ncnc1Nc1ccc2c(cnn2Cc2ccccc2)c1` [Cpd 49, (5E)-4-amino-6-(1-benzyl-1H-indazol-5-ylamino)-pyrimidine-5-carbaldehyde O-ethyl-oxime], the IC50 worked out at 30 nM in experiment [1] and 10 nM in experiment [2]. For `CCO/N=C/c1c(N)ncnc1Nc1ccc2c(cnn2Cc2cccc(C#N)c2)c1` [Cpd 51, 3-{5-[6-amino-(5E)-5-(ethoxyimino-methyl)-pyrimidin-4-ylamino]-indazol-1-ylmethyl}-benzonitrile] the same measures were 40 nM and 40 nM. With `CCO/N=C/c1c(N)ncnc1Nc1ccc2nn(Cc3ccccc3)cc2c1` [Cpd 52], the IC50 in experiment [2] worked out at 4500 nM. For the molecule `CCO/N=C/c1c(N)ncnc1Nc1ccc2c(cnn2Cc2cccc(OC)c2)c1` [Cpd 57], half-maximal inhibition in experiment [1] (IC50) was put at 200 nM. On the same count and under the same terms, for `CCO/N=C/c1c(N)ncnc1Nc1ccc2[nH]c(Cc3cccc(F)c3)nc2c1` [Cpd 58, (5E)-4-amino-6-[2-(3-fluoro-benzyl)-1H-benzoimidazol-5-ylamino]-pyrimidine-5-carbaldehyde O-ethyl-oxime] the value was 30 nM. The same measure, in the same setting: the result for `CO/N=C/c1c(N)ncnc1Nc1cccc(Cl)c1` [Cpd 59, (5E)-4-amino-6-(3-chloro-phenylamino)-pyrimidine-5-carbaldehyde O-methyl-oxime] reads 50 nM. For the molecule `CO/N=C/c1c(N)ncnc1Nc1ccc(OCc2cccc(F)c2)c(OC)c1` [Cpd 61], in experiment [1], inhibition was half-maximal at 200 nM (IC50). On the same count and under the same terms, the result for `CCO/N=C/c1c(N)ncnc1Nc1ccc(OCc2cccc(F)c2)c(OC)c1` [Cpd 62] reads 200 nM. As for `CO/N=C/c1c(N)ncnc1Nc1ccc2oc(Cc3ccccc3)cc2c1` [Cpd 73], the IC50 in experiment [2] is 2900 nM. On the same count and under the same terms, for `Nc1ncnc(NCc2ccc3c(c2)OCO3)c1C=NCc1ccc2c(c1)OCO2` [Cpd 119, N-benzo[1,3]dioxol-5-ylmethyl-5-[(benzo[1,3]dioxol-5-ylmethylimino)-methyl]-pyrimidine-4,6-diamine] the value was greater than 10000 nM; for `CON=Cc1c(N)ncnc1NCc1ccc2c(c1)OCO2` [Cpd 121, 4-amino-6-[(benzo[1,3]dioxol-5-ylmethyl)-amino]-pyrimidine-5-carbaldehyde O-methyl-oxime], greater than 10000 nM.
